The record followed here is US20160106102A1, “KNOWN AND NEW HETEROCYCLIC COMPOUNDS AS PEST CONTROL AGENTS” (BAYER CROPSCIENCE AKTIENGESELLSCHAFT, priority 2013, published 2016).

The first series deals with Myzus persicae. The series is described as follows: Myzus persicae - sachet test. Format: in vivo. The note with it: application rate of 6 ppm in nutrient medium; 100% = all animals killed. As to the method: Myzus persicae—Sachet Test Solvent: 2% by vol. of N-methylpyrrolidone • 2% by vol. of diacetone alcohol To produce an appropriate active ingredient formulation, the active ingredient is mixed with the specified amounts of solvent and the concentrate is diluted to the desired concentration with water. The active ingredient formulation is added to a specific nutrient medium in the desired concentration by pipetting. This plate is sealed and combined with a further plate populated with the green peach aphid (Myzus persicae). After the desired time, the kill in % is determined. 100% means that all the animals have been killed; 0% means that no animals have been killed.
Take `COC(=O)CCCn1nc(NC(=O)c2cccnc2)cc1C` [Compound I-1-67]: the “efficacy (kill in %)” value came to 100%.
For `O=C(Nc1ccn(-c2ccc(F)cc2F)n1)c1cccnc1` [Compound I-1-85], the “efficacy (kill in %)” value was 100%.

The series is the same for the next values; noted with them: application rate of 30 ppm in nutrient medium; 100% = all animals killed.
Turning to `COC(=O)CCCn1nc(NC(=O)c2cccnc2)cc1C` [Compound I-1-67], the “efficacy (kill in %)” value came out at 100%.
For the molecule `CCOC(=O)Cn1ccc(NC(=O)c2cccnc2)n1` [Compound I-1-69], the “efficacy (kill in %)” value is recorded as 100%.
Consider `O=C(Nc1ccn(Cc2ccc(Cl)cc2Cl)n1)c1cccnc1` [Compound I-1-82], for which the “efficacy (kill in %)” value is reported as 100%.
`O=C(Nc1ccn(-c2ccc(F)cc2F)n1)c1cccnc1` [Compound I-1-85]: the “efficacy (kill in %)” value was 100%.
As to `CCn1nnc(NC(=O)c2cccnc2)n1` [Compound I-4-1], the “efficacy (kill in %)” value is 100%.

System in another series: not listed separately
The series is described as follows: log P determination by LC-MS in the acidic range. As to conditions: LC-MS in the acidic range. Format: physicochemical. An excerpt: The LC-MS determination in the acidic range is effected at pH 2.7 using 0.1% aqueous formic acid and acetonitrile (contains 0.1% formic acid) as eluents, linear gradient from 10% acetonitrile to 95% acetonitrile. Alternatively, the determination is effected in the acidic range at pH 2.3 using 0.1% aqueous phosphoric acid and acetonitrile as eluents; linear gradient from 10% acetonitrile to 95% acetonitrile.
In the case of `Cn1nc(NC(=O)c2cccnc2)c(Br)c1OC(F)F` [Compound I-1-47], the “log P (acid)” value came out at 1.13.
On the same count and under the same terms, the result for `CCOC(=O)Cn1nc(NC(=O)c2cncc(F)c2)cc1C` [Compound I-1-59] reads 1.53; that for `COc1ccc(C(=O)Nc2cc(C)n(Cc3cccc(F)c3)n2)cn1` [Compound I-1-94], 2.51.
As for `Cc1cc(NC(=O)c2cnc(Cl)c(Cl)c2)nn1Cc1cccc(F)c1` [Compound I-1-96], the “log P (acid)” value is 3.26.
Regarding `Cc1cc(NC(=O)c2cnc(Cl)c(Cl)c2)nn1Cc1ccc(F)cc1` [Compound I-1-97], the “log P (acid)” value is given as 3.23.
Turning to `Cc1cc(NC(=O)c2ccc(Cl)nc2)nn1Cc1ccccc1` [Compound I-1-98], the “log P (acid)” value was found to be 2.48.
`Cc1cc(NC(=O)c2cncc(Br)c2)nn1Cc1ccccc1F` [Compound I-1-101]: the “log P (acid)” value is given as 2.69.
For `Cc1ccc(C(=O)Nc2cc(C)n(Cc3ccccc3F)n2)cn1` [Compound I-1-102], the “log P (acid)” value was 1.73.
In the case of `Cc1cc(NC(=O)c2cnc(Cl)c(Cl)c2)nn1Cc1ccccc1F` [Compound I-1-103], the “log P (acid)” value stood at 3.28.
For `COc1ccc(C(=O)Nc2cc(C)n(Cc3ccccc3F)n2)cn1` [Compound I-1-105], the “log P (acid)” value was 2.52.
On the same count and under the same terms, the value for `Cc1cc(NC(=O)c2ccc(Cl)nc2)nn1Cc1cccc(F)c1` [Compound I-1-106] was 2.6; that for `Cc1cc(NC(=O)c2cncc(Br)c2)nn1Cc1cccc(F)c1` [Compound I-1-107] was 2.71.
For the molecule `Cc1ccc(C(=O)Nc2cc(C)n(Cc3ccc(F)cc3)n2)cn1` [Compound I-1-109], the “log P (acid)” value amounted to 1.76.
Take `COc1ccc(C(=O)Nc2cc(C)n(Cc3ccc(F)cc3)n2)cn1` [Compound I-1-110]: the “log P (acid)” value is on record as 2.47.
Turning to `Cn1nc(NC(=O)c2cncc(F)c2)c(Br)c1OC(F)F` [Compound I-1-113], the “log P (acid)” value is 1.67.
With `Cc1cc(NC(=O)c2cncc(F)c2)nn1CC(=O)O` [Compound I-1-114], the “log P (acid)” value is given as 0.87.
Still for that read-out and setting: the result for `Cc1cc(NC(=O)c2cccnc2)nn1CC(=O)O` [Compound I-1-115] reads 0.09.
Consider `N#Cc1ccccc1-n1ccc(NC(=O)c2cccnc2)n1` [Compound I-1-117], for which the “log P (acid)” value was determined as 1.42.
`Cc1cc(NC(=O)c2cccnc2)nn1C(=O)c1cccc(Cl)c1` [Compound I-1-127]: the “log P (acid)” value is recorded as 1.92.
As to `O=C(Nc1nn(Cc2ncccn2)cc1Cl)c1cccnc1` [Compound I-1-137], the “log P (acid)” value worked out at 0.58.
Turning to `Cn1nc(NC(=O)c2cccnc2)c(C#N)c1[S+](C)[O-]` (stereo not shown) [Compound I-1-141], the “log P (acid)” value is 0.06.
The same measure, in the same setting: the result for `Cc1cc(NC(=O)c2ccnnc2)nn1Cn1nc(C2CC2)n(C2CC2)c1=O` [Compound I-1-150] reads 1.33.
Turning to `Cc1cc(NC(=O)c2ccnnc2)nn1Cn1nc(C)n(C2CC2)c1=O` [Compound I-1-151], the “log P (acid)” value worked out at 0.92.
For `COc1nn(Cn2nc(NC(=O)c3ccnnc3)cc2C)c(=O)n1C1CC1` [Compound I-1-152], the “log P (acid)” value came to 1.17.
For the molecule `Cc1ccc(-n2nc(NC(=O)c3cccnc3)cc2C)cc1` [Compound I-1-193], the “log P (acid)” value came out at 2.02.
In the case of `COc1ccc(-n2nc(NC(=O)c3cccnc3)cc2C)cc1` [Compound I-1-200], the “log P (acid)” value amounted to 1.34.

Staying with this series, now noted: pH 2.7, LC-MS in the acidic range; read-out: log P (acid).
Regarding `Cn1nc(NC(=O)c2cncc(F)c2)cc1OC(F)F` [Compound I-1-112, N-[5-(Difluoromethoxy)-1-methyl-1H-pyrazol-3-yl]-5-fluoronicotinamide], the chromatographic logP amounted to 1.56.
As for `O=C(Nc1ccn(Cc2ncc(C(F)(F)F)cc2Cl)n1)c1ccc(Cl)nc1` [Compound I-1-118, 6-Chloro-N-(1-{[3-chloro-5-(trifluoromethyl)pyridin-2-yl]methyl}-1H-pyrazol-3-yl)nicotinamide], the chromatographic logP worked out at 2.64.
For the molecule `Cc1cc(NC(=O)c2cccnc2)nn1C(=O)C1CC1` [Compound I-1-121, N-[1-(Cyclopropylcarbonyl)-5-methyl-1H-pyrazol-3-yl]nicotinamide], the chromatographic logP was found to be 1.65.
On the same count and under the same terms, the result for `COC(=O)c1cc(NC(=O)c2cncc(F)c2)nn1C` [Compound I-1-134, Methyl 3-{[(5-fluoropyridin-3-yl)carbonyl]amino}-1-methyl-1H-pyrazole-5-carboxylate] reads 1.5.

Still in this series, the particulars now being: pH 2.7, values given in the synthesis examples and NMR lists; read-out: HPLC-MS: log P.
`CCSCn1nc([N+](=O)[O-])cc1C` [1-[(Ethylsulphanyl)methyl]-5-methyl-3-nitro-1H-pyrazole]: the chromatographic logP amounted to 2.21.
As for `Cc1c[nH]nc1N1C(=O)c2ccccc2C1=O` [2-(4-Methyl-1H-pyrazol-3-yl)-1H-isoindole-1,3(2H)-dione], the chromatographic logP stood at 1.34.
`O=C1c2ccccc2C(=O)N1c1cc(Br)[nH]n1` [2-(5-Bromo-1H-pyrazol-3-yl)-1H-isoindole-1,3(2H)-dione]: the chromatographic logP amounted to 1.83.
For the molecule `Cc1cc([N+](=O)[O-])nn1-c1ncccn1` [2-(5-Methyl-3-nitro-1H-pyrazol-1-yl)pyrimidine], the chromatographic logP worked out at 1.41.
`Cc1cn(Cc2ncccn2)nc1N1C(=O)c2ccccc2C1=O` [2-[4-Methyl-1-(pyrimidin-2-ylmethyl)-1H-pyrazol-3-yl]-1H-isoindole-1,3(2H)-dione]: the chromatographic logP was determined as 1.58.
Same read-out and setting: the value for `O=C1c2ccccc2C(=O)N1c1cc(Br)n(Cc2ncccn2)n1` [2-[5-Bromo-1-(pyrimidin-2-ylmethyl)-1H-pyrazol-3-yl]-1H-isoindole-1,3(2H)-dione] was 2.02.
For `O=[N+]([O-])c1ccn(Cc2ncc(C(F)(F)F)cc2Cl)n1` [3-Chloro-2-[(3-nitro-1H-pyrazol-1-yl)methyl]-5-(trifluoromethyl)pyridine], the chromatographic logP amounted to 2.67.
For the molecule `Cc1cn(Cc2ncccn2)nc1N` [4-Methyl-1-(pyrimidin-2-ylmethyl)-1H-pyrazole-3-amine], the chromatographic logP is -0.22.
On to `Cc1cc(N)nn1-c1ncccn1` [5-Methyl-1-(pyrimidin-2-yl)-1H-pyrazole-3-amine], for which the chromatographic logP was 0.5.
The same measure, in the same setting: the value for `Cc1cc(C(=O)O)nn1Cc1ncccn1` [5-Methyl-1-(pyrimidin-2-ylmethyl)-1H-pyrazole-3-carboxylic acid] was 0.45; that for `Cc1nn(-c2ccccn2)nc1N` [5-Methyl-2-(pyridin-2-yl)-2H-1,2,3-triazol-4-amine] was 0.74.
In the case of `Cn1nc(NC(=O)c2cncc(F)c2)cc1OC(F)F` [Compound I-1-112, N-[5-(Difluoromethoxy)-1-methyl-1H-pyrazol-3-yl]-5-fluoronicotinamide], the chromatographic logP is 1.56.
In the case of `O=C(Nc1ccn(Cc2ncc(C(F)(F)F)cc2Cl)n1)c1ccc(Cl)nc1` [Compound I-1-118, 6-Chloro-N-(1-{[3-chloro-5-(trifluoromethyl)pyridin-2-yl]methyl}-1H-pyrazol-3-yl)nicotinamide], the chromatographic logP stood at 2.64.
With `Cc1cc(NC(=O)c2cccnc2)nn1C(=O)C1CC1` [Compound I-1-121, N-[1-(Cyclopropylcarbonyl)-5-methyl-1H-pyrazol-3-yl]nicotinamide], the chromatographic logP was 1.65.
Turning to `COC(=O)c1cc(NC(=O)c2cncc(F)c2)nn1C` [Compound I-1-134, Methyl 3-{[(5-fluoropyridin-3-yl)carbonyl]amino}-1-methyl-1H-pyrazole-5-carboxylate], the chromatographic logP is 1.5.
